In brackets after ≈: the same amount, converted by molar mass.

For assay [1], the system named is mixture of Asaia bogorensis, Asaia lannaensis, Gluconobacter oxydans and Gluconacetobacter liquefaciens. As to the kind of experiment: microbe, parasite or virus in culture. The conditions noted are these: 168 h, read-out: MIC ppm after one week.
Excerpt: (§1) A drink was contaminated with a particular amount of a mixture of microorganisms and a mixture of preservatives was investigated for efficacy compared to the individual substances. The mixture of bacteria is composed of Asaia bogorensis, Asaia lannaensis, Gluconobacter oxydans and Gluconacetobacter liquefaciens.
(§2) The following relationships apply: QA/Qa+QB/Qb+QC/Qc=SI • Qa=concentration of substance A which is the MIC • Qb=concentration of substance B which is the MIC • Qc=concentration of substance C which is the MIC • QA=concentration of substance A in the concentration of A/B/C at which microbial growth is suppressed • QB=concentration of substance B in the concentration of A/B/C at which microbial growth is suppressed • QC=concentration of substance C the concentration of A/B/C at which microbial growth is suppressed • SI=Synergy Index • SI=1 means additivity • SI>1 means antagonism • SI<1 means synergism
For assay [2] the test system is unchanged. The settings on record: individual active ingredient; substrate iced tea; 200 cfu/mL per bacterium in the mixture.
Excerpt: as §1, §2

Regarding `COC(=O)OC(=O)OC` [Dimethyl dicarbonate, dimethyl dicarbonate], the MIC in assay [1] worked out at 300 µg/mL (≈ 2240 µM). Moreover, in assay [2], the “MIC ppm after one week” value was 300 µg/mL (≈ 2240 µM).
`O=S([O-])OS(=O)[O-].[K+].[K+]` [Potassium disulphite, potassium disulphite]: in assay [1], the MIC is 60 µg/mL. Besides, in assay [2], the “MIC ppm after one week” value was determined as 60 µg/mL.
For the compound `C/C=C/C=C/C(=O)[O-].[K+]` [Potassium sorbate, potassium sorbate], the MIC in assay [1] came out at 750 µg/mL.
As for `O=C([O-])c1ccccc1.[Na+]` [Sodium benzoate, sodium benzoate], in assay [2], the “MIC ppm after one week” value stood at 550 µg/mL.

For the origin of these results see patent publication US9918488B2, “Method for sterilizing drinks contaminated with acetic acid bacteria” (LANXESS Deutschland GmbH, priority 2014, dated 2018).
